These results are taken from patent publication US11691951B2 (Curtana Pharmaceuticals, Inc., priority 2015, dated 2023).

A value given as a limit tells only on which side of the number the result lay.

The assay deals with GBM8 cells (human glioblastoma neurosphere cell culture). The experiment in a line: GBM8 viability assay (Cell Titer Glo luminescence, 3 days). The note with it: 72 h, 3 days incubation. The assay is classed as cell-based. On the procedure:
Example 283: GBM4 and GBM8 Viability Assay
Cell culture medium was prepared from a NSA proliferation kit (Neurocult) and NeuroCult supplements (Stemcell Tech Cat. #05751) and treated with 20 μL of 10 μg/mL rh EGF, 10 μL of 10 μg/mL rh bFGF and 10 μL of 0.2% Heparin. In this medium, human glioblastoma cells were cultured in ultra-low attachment tissue culture flasks until 1×10^6 cells ml was achieved (GBM4 and GBM8 are distinct neurosphere cell cultures derived from these human patient tissues). GBM4 and GBM8 cells were dissociated and 10 mL of media containing 4000 human glioblastoma cells per 90 uL were transferred to an ultra-low binding 96-well plate and incubated at 37° C. overnight. On the following day, 10 μL of a 1% DMSO solution of test compound in assay medium was added to wells containing the cell suspension and the mixture incubated at 37° C. for 3 days. At this time, the plate was removed from the incubator and allowed to reach room temperature. After about 30 minutes, 50 μL of Cell Titer Glo solution was added to each well and the plate shaken for 1 minute at low speed. After 10 minutes luminescence was recorded using a Tecan Safire2 reader.
Reduction in luminescence compared to DMSO only control wells was used to determine the percentage inhibition of cell growth. IC50s were calculated using the % inhibition of luminescence for serial dilutions of compounds fitted to a 4-parameter fit within the Prism (San Diego) curve fitting program.
On the technique in general: In ATP-based viability assays light output follows the ATP content of the culture.
`CNCCNc1cc(C)nc(NC(=O)Nc2ccc3c(c2)OCCO3)n1` [Compound 298, 1-(2,3-dihydrobenzo[b][1,4]dioxin-6-yl)-3-(4-methyl-6-((2-(methylamino)ethyl)amino)pyrimidin-2-yl)urea] showed a half-maximal inhibitory concentration (IC50) of under 1 µM.

In turn, `CCCNc1cc(C)nc(NC(=O)Nc2ccc(OC(F)(F)F)cc2)n1` [Compound 91] yielded an IC50 of under 1 µM.

Compound `Cc1ccc(NC(=O)Nc2nc(C)cc(NCCCCN(C)C)n2)cc1` [Compound 245] returned a half-maximal inhibitory concentration (IC50) of 1 to 10 µM.

`Cc1cc(NCCCCO)nc(NC(=O)Nc2ccc(Cl)c(C(F)(F)F)c2)n1` [Compound 50] returned an IC50 of under 1 µM.

In turn, `Cc1cc(NCC(F)(F)CO)nc(NC(=O)Nc2ccccc2)n1` [Compound 79] came in with an IC50 of 1 to 10 µM.

Turning to `CNCCCNc1cc(C)nc(NC(=O)Nc2ccc(Cl)c(Cl)c2)n1` [Compound 29], the half-maximal inhibitory concentration (IC50) was under 1 µM.

As to `Cc1cc(NCCCN)nc(NC(=O)Nc2ccc3c(c2)OCO3)n1` [Compound 282], the 50% inhibitory concentration (IC50) is under 1 µM.

Take `CCCNc1cc(C)nc(NC(=O)Nc2ccc3c(c2)OCO3)n1` [Compound 286]: the IC50 is under 1 µM.

The compound `Cc1ccc(NC(=O)Nc2nc(C)cc(NCCN)n2)cc1` [Compound 237] gave an IC50 of under 1 µM.

The compound `Cc1cc(NCC(C)O)nc(NC(=O)Nc2cccc(C(F)(F)F)c2)n1` (centres unmarked) [Compound 185] registered an IC50 of under 1 µM.

In the case of `Cc1cc(NCCO)nc(NC(=O)Nc2ccccc2)n1` [Compound 71], the 50% inhibitory concentration (IC50) fell in the range of 1 to 10 µM.

`Cc1cc(NCCCc2cnc[nH]2)nc(NC(=O)Nc2ccc(C)c(C)c2)n1` [Compound 266] came in with an IC50 of under 1 µM.

For the compound `CNCCNc1cc(C)nc(NC(=O)Nc2ccccc2)n1` [Compound 82, 1-(4-methyl-6-((2-(methylamino)ethyl)amino)pyrimidin-2-yl)-3-phenylurea], the IC50 fell in the range of 1 to 10 µM.

`Cc1cccc(NC(=O)Nc2nc(C)cc(NCC(C)O)n2)c1` (centres unmarked) [Compound 219] came in with an IC50 of under 1 µM.

Turning to `Cc1cc(NCC(C)O)nc(NC(=O)Nc2ccc(Cl)c(C(F)(F)F)c2)n1` (centres unmarked) [Compound 54], the concentration for half-maximal inhibition (IC50) was under 1 µM.

Consider `CC(=O)NCCNc1cc(C)nc(NC(=O)Nc2ccc(OC(F)(F)F)cc2)n1` [Compound 274, N-(3-((6-methyl-2-(3-(4-(trifluoromethoxy)phenyl)ureido)pyrimidin-4-yl)amino)ethyl)acetamide], for which the concentration for half-maximal inhibition (IC50) was under 1 µM.

In the case of `CC(=O)NCCNc1cc(C)nc(NC(=O)Nc2ccc3c(c2)OCCO3)n1` [Compound 307, N-(2-{2-[3-(2,3-dihydro-benzo[1,4]dioxin-6-yl)-ureido]-6-methyl-pyrimidin-4-ylamino}-ethyl)-acetamide], the IC50 was under 1 µM.

As for `Cc1cc(NCCCN(C)C)nc(NC(=O)Nc2ccc(C(C)(C)C)cc2)n1` [Compound 301, 1-(4-(tert-butyl)phenyl)-3-(4-((3-(dimethylamino)propyl)amino)-6-methylpyrimidin-2-yl)urea], the IC50 was under 1 µM.

In turn, `CNCCCNc1cc(C)nc(NC(=O)Nc2ccc(C)cc2)n1` [Compound 248, 1-(4-methyl-6-((3-(methylamino)propyl)amino)pyrimidin-2-yl)-3-(p-tolyl)urea] had a concentration for half-maximal inhibition (IC50) of 1 to 10 µM.

`Cc1cc(NCCCCO)nc(NC(=O)Nc2ccc(F)c(Cl)c2)n1` [Compound 163] gave an IC50 of under 1 µM.

Compound `Cc1cc(NCCN(C)C)nc(NC(=O)Nc2cccc(C(F)(F)F)c2)n1` [Compound 189] registered an IC50 of 1 to 10 µM.

Take `Cc1cccc(NC(=O)Nc2nc(C)cc(NCCCc3ccccn3)n2)c1` [Compound 221]: the half-maximal inhibitory concentration (IC50) lay in the range of 1 to 10 µM.

`CNCCCCNc1cc(C)nc(NC(=O)Nc2ccc(Cl)c(C(F)(F)F)c2)n1` [Compound 65] returned an IC50 of under 1 µM.

`Cc1cccc(NC(=O)Nc2nc(C)cc(NCCCN(C)C)n2)c1` [Compound 209, 1-(4-((3-(dimethylamino)propyl)amino)-6-methylpyrimidin-2-yl)-3-(m-tolyl)urea] returned an IC50 of under 1 µM.

As for `CNCCNc1cc(C)nc(NC(=O)Nc2ccc3c(c2)OCO3)n1` [Compound 288, 1-(benzo[d][1,3]dioxol-5-yl)-3-(4-methyl-6-((2-(methylamino)ethyl)amino)pyrimidin-2-yl)urea], the half-inhibitory concentration (IC50) is under 1 µM.

With `Cc1cc(NCCOCCO)nc(NC(=O)Nc2ccc(F)c(C(F)(F)F)c2)n1` [Compound 107], the IC50 was under 1 µM.

Take `Cc1cc(NCC2CCCNC2)nc(NC(=O)Nc2ccc(F)c(C(F)(F)F)c2)n1` (centres unmarked) [Compound 122]: the concentration for half-maximal inhibition (IC50) is under 1 µM.

`Cc1cc(NCCCN(C)C)nc(NC(=O)Nc2cccc(OC(F)(F)F)c2)n1` [Compound 172, 1-(4-((3-(dimethylamino)propyl)amino)-6-methylpyrimidin-2-yl)-3-(3-(trifluoromethoxy)phenyl)urea] returned an IC50 of under 1 µM.

On to `Cc1cc(NCCCCN)nc(NC(=O)Nc2ccc(F)c(Cl)c2)n1` [Compound 160], for which the IC50 was under 1 µM.

Turning to `Cc1cc(NCCC(N)=O)nc(NC(=O)Nc2ccc(Cl)c(C(F)(F)F)c2)n1` [Compound 60], the half-inhibitory concentration (IC50) was under 1 µM.

`COc1ccc(NC(=O)Nc2nc(C)cc(NCC(C)O)n2)cc1` (centres unmarked) [Compound 133] yielded an IC50 of under 1 µM.

The compound `Cc1cccc(NC(=O)Nc2nc(C)cc(NCCCc3cnc[nH]3)n2)c1` [Compound 226] returned an IC50 of under 1 µM.

With `Cc1ccc(NC(=O)Nc2nc(C)cc(NCCCCN)n2)cc1` [Compound 241], the IC50 was under 1 µM.

The compound `Cc1cc(NCC(O)CO)nc(NC(=O)Nc2ccc(OC(F)(F)F)cc2)n1` (centres unmarked) [Compound 96] returned an IC50 of under 1 µM.

Compound `Cc1cc(NCCN)nc(NC(=O)Nc2ccc(C(F)(F)F)cc2)n1` [Compound 207] showed an IC50 of under 1 µM.

In the case of `Cc1cc(NCCCCN)nc(NC(=O)Nc2ccc(C(F)(F)F)cc2)n1` [Compound 197], the half-inhibitory concentration (IC50) is under 1 µM.

In turn, `Cc1cc(NCC(O)CO)nc(NC(=O)Nc2ccccc2)n1` (centres unmarked) [Compound 78] returned an IC50 of under 1 µM.

For `Cc1cc(NCCN)nc(NC(=O)Nc2ccc(F)c(Cl)c2)n1` [Compound 162], the IC50 is under 1 µM.

Compound `Cc1cc(NCCCN(C)C)nc(NC(=O)Nc2ccccc2)n1` [Compound 69, 1-(4-((3-(dimethylamino)propyl)amino)-6-methylpyrimidin-2-yl)-3-phenylurea] gave an IC50 of 1 to 10 µM.

Consider `Cc1cc(NCCOCCO)nc(NC(=O)Nc2ccc(Cl)c(Cl)c2)n1` [Compound 18], for which the concentration for half-maximal inhibition (IC50) is under 1 µM.

Compound `COc1cccc(NC(=O)Nc2nc(C)cc(NCCCCO)n2)c1` [Compound 146] returned an IC50 of 1 to 10 µM.

For `Cc1cc(NCCCN)nc(NC(=O)Nc2ccc(F)c(Cl)c2)n1` [Compound 158, 1-(4-((3-aminopropyl)amino)-6-methylpyrimidin-2-yl)-3-(3-chloro-4-fluorophenyl)urea], the half-maximal inhibitory concentration (IC50) was under 1 µM.

On to `Cc1cc(NCCOCCO)nc(NC(=O)Nc2ccc(F)c(Cl)c2)n1` [Compound 166], for which the IC50 was under 1 µM.

As for `Cc1cccc(NC(=O)Nc2nc(C)cc(NCCCCN)n2)c1` [Compound 216], the half-inhibitory concentration (IC50) is under 1 µM.

As to `Cc1cc(NCCCO)nc(N2CCN(c3ccc(Cl)c(Cl)c3)C2=O)n1` [Compound 35, 3-(3,4-dichlorophenyl)-1-[4-(3-hydroxypropylamino)-6-methyl-2-pyrimidinyl]-2-imidazolidinone], the IC50 is under 1 µM.

`Cc1cc(NCC(C)O)nc(NC(=O)Nc2ccc(C(F)(F)F)cc2)n1` (centres unmarked) [Compound 198] registered a half-maximal inhibitory concentration (IC50) of under 1 µM.

Consider `Cc1cc(NCCCN)nc(NC(=O)Nc2ccc(F)c(C(F)(F)F)c2)n1` [Compound 111], for which the half-inhibitory concentration (IC50) is under 1 µM.

Broadly, the IC50 is the concentration needed to halve the response being measured. A lower IC50 goes with greater potency.
